Laboratory results reported in the supplement of paper PMC4862054.
“And” between values parts separate entries of the source, which are not always exact repeats. Identical values can stand only once.

Columns and labels:
Test in all cases: normalised viability (% of control), CellTiter-Blue; higher = more viable cells (about 100 = DMSO control)
SK-BR-3 = conditions: 100 nM; incubation time: 72 h
Protocol: (§1)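 DSRT, CellTiter-Blue viability, 72 h incubation. Signal is normalised to DMSO and benzethonium chloride controls. Value is the normalised response at dose 3.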

CAL-148 [1] = conditions: 10 nM; incubation time: 72 h
Protocol: as §1

HCC1937 = conditions: 100 nM; incubation time: 72 h
Protocol: as §1

MDA-MB-436 = conditions: 100 nM; incubation time: 72 h
Protocol: as §1

HDQ-P1 [2] = conditions: 10 nM; incubation time: 72 h
Protocol: as §1

CAL-85-1 [3] = conditions: 10 nM; incubation time: 72 h
Protocol: as §1

CAL-120 = conditions: 100 nM; incubation time: 72 h
Protocol: as §1

MDA-MB-468 = conditions: 100 nM; incubation time: 72 h
Protocol: as §1

CAL-51 [4] = conditions: 10 nM; incubation time: 72 h
Protocol: as §1

BT-474 = conditions: 100 nM; incubation time: 72 h
Protocol: as §1

MFM-223 = conditions: 100 nM; incubation time: 72 h
Protocol: as §1

HCC1599 = conditions: 100 nM; incubation time: 72 h
Protocol: as §1

MDA-MB-231 = conditions: 100 nM; incubation time: 72 h
Protocol: as §1

HCC1143 = conditions: 100 nM; incubation time: 72 h
Protocol: as §1

DU-4475 [5] = conditions: 10 nM; incubation time: 72 h
Protocol: as §1

Hs578T = conditions: 100 nM; incubation time: 72 h
Protocol: as §1

BT-549 = conditions: 100 nM; incubation time: 72 h
Protocol: as §1

MDA-MB-453 [6] = conditions: 10 nM; incubation time: 72 h
Protocol: as §1

CAL-148 [7] = conditions: 10000 nM; incubation time: 72 h
Protocol: (§2)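 DSRT, CellTiter-Blue viability, 72 h incubation. Signal is normalised to DMSO and benzethonium chloride controls. Value is the normalised response at dose 9.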

HDQ-P1 [8] = conditions: 10000 nM; incubation time: 72 h
Protocol: as §2

CAL-85-1 [9] = conditions: 10000 nM; incubation time: 72 h
Protocol: as §2

CAL-51 [10] = conditions: 10000 nM; incubation time: 72 h
Protocol: as §2

DU-4475 [11] = conditions: 10000 nM; incubation time: 72 h
Protocol: as §2

MDA-MB-453 [12] = conditions: 10000 nM; incubation time: 72 h
Protocol: as §2

CAL-148 [13] = conditions: 300 nM; incubation time: 72 h
Protocol: (§3)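 DSRT, CellTiter-Blue viability, 72 h incubation. Signal is normalised to DMSO and benzethonium chloride controls. Value is the normalised response at dose 6.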

HDQ-P1 [14] = conditions: 300 nM; incubation time: 72 h
Protocol: as §3

CAL-85-1 [15] = conditions: 300 nM; incubation time: 72 h
Protocol: as §3

CAL-51 [16] = conditions: 300 nM; incubation time: 72 h
Protocol: as §3

DU-4475 [17] = conditions: 300 nM; incubation time: 72 h
Protocol: as §3

MDA-MB-453 [18] = conditions: 300 nM; incubation time: 72 h
Protocol: as §3

Row | Compound | normalised viability (SK-BR-3) | normalised viability (CAL-148 [1]) | normalised viability (HCC1937) | normalised viability (MDA-MB-436) | normalised viability (HDQ-P1 [2]) | normalised viability (CAL-85-1 [3]) | normalised viability (CAL-120) | normalised viability (MDA-MB-468) | normalised viability (CAL-51 [4]) | normalised viability (BT-474) | normalised viability (MFM-223) | normalised viability (HCC1599) | normalised viability (MDA-MB-231) | normalised viability (HCC1143) | normalised viability (DU-4475 [5]) | normalised viability (Hs578T) | normalised viability (BT-549) | normalised viability (MDA-MB-453 [6]) | normalised viability (CAL-148 [7]) | normalised viability (HDQ-P1 [8]) | normalised viability (CAL-85-1 [9]) | normalised viability (CAL-51 [10]) | normalised viability (DU-4475 [11]) | normalised viability (MDA-MB-453 [12]) | normalised viability (CAL-148 [13]) | normalised viability (HDQ-P1 [14]) | normalised viability (CAL-85-1 [15]) | normalised viability (CAL-51 [16]) | normalised viability (DU-4475 [17]) | normalised viability (MDA-MB-453 [18])
1 | C[C@H]1C[C@@H]2[C@H]([C@@H](O)C[C@@]3(C)[C@H]2CC[C@]3(O)C(=O)CO)[C@@]2(C)C=CC(=O)C=C12 [Methylprednisolone] | 82.5% | 91.3% | 97.7% | 94.6% | 116% | 114% | 79.8% | 96.6% | 101% | 119% | 81.1% | 108% | 120% | 86.6% | 101% | 85.3% | 111% | 100% | 106% | 123% | 91% | 92.5% | 87.4% | 75.7% | 104% | 74.6% | 112% | 105% | 100% | 83.3%
2 | C1CN1c1nc(N2CC2)nc(N2CC2)n1 [Triethylenemelamine] | 95.5% | 103% | 88.5% | 105% | 102% | 101% | 109% | 101% | 100% | 113% | 93.8% | 106% | 115% | 105% | 102% | 107% | 95.7% | 96.6% | 80% | 101% | 72.8% | 60.5% | 95.9% | 40.9% | 118% | 105% | 99% | 105% | 97.2% | 108%
3 | CCCCC(=O)OCC(=O)[C@]1(O)Cc2c(O)c3c(c(O)c2[C@@H](O[C@H]2C[C@H](NC(=O)C(F)(F)F)[C@H](O)[C@H](C)O2)C1)C(=O)c1c(OC)cccc1C3=O [Valrubicin] | 57.8% | 91.6% | 73.7% | 122% | 120% | 84.2% | 77.3% | 92.1% | 92.2% | 109% | 91.9% | 92.2% | 77% | 86.4% | 89.4% | 79.7% | 85.2% | 103% | 1.24% | 52.9% | 18.6% | 2.32% | -0.99% | 16.2% | 35.5% | 72% | 75.1% | 34.5% | 23.4% | 73.9%
4 | CCc1cncnc1N1CCN(Cc2nc3ccc(C(F)(F)F)cc3[nH]2)CC1 | 98.2% | 107% | 104% | 99.8% | 116% | 96.3% | 105% | 117% | 87% | 123% | 103% | 86.2% | 91.6% | 132% | 94.2% | 96.4% | 88.2% | 98.8% | 108% | 110% | 110% | 64% | 91.8% | 54.6% | 107% | 105% | 89.8% | 88.1% | 105% | 101%
5 | Nc1ncn([C@H]2C[C@H](O)[C@@H](CO)O2)c(=O)n1 [Decitabine] |  | 87.3% and 90% | 101% and 108% | 89.6% and 90.8% | 109% and 95.9% | 96% and 100% | 85.2% and 84.4% | 32.4% and 32.1% | 112% and 102% | 87.1% and 95.7% | 79% and 95.3% | 108% and 99.9% | 86.7% and 95% | 82.4% and 79.1% | 98.1% and 117% | 85.2% and 99.2% | 102% and 98.4% | 90.9% and 113% |  | 97.9% and 90.5% |  | 66.7% and 70.4% | 53.4% and 64.7% |  | 97.3% and 76% | 65.3% and 81.8% | 81.5% and 90.7% | 99% and 92.1% | 86% and 85.5% | 95.2% and 101%
6 | CC[C@H](Nc1ncnc2[nH]cnc12)c1nc2cccc(F)c2c(=O)n1-c1ccccc1 [CAL-101] | 76.3% | 96.2% | 97.1% | 104% | 112% | 87.5% | 97.2% | 115% | 84.7% | 112% | 88.3% | 73.6% | 80.9% | 102% | 98.6% | 89.6% | 102% | 97.4% | 88.1% | 61.3% | 47.5% | 57.3% | -0.99% | 67.4% | 90.4% | 58% | 81.9% | 85.3% | 91.1% | 86%
